# Earlier results, collected in US6433175B1, “Pyrroloindoles, pyridoindoles and azepinoindoles as 5-ht2c agonists” (Vernalis Research Limited, priority 1998, dated 2002).
# How the values were obtained:
# [1] = cited from earlier work
# rats = settings: cited from earlier work
smiles,measurement,setting,value
"Clc1cccc(N2CCNCC2)c1 [mCPP, m-chlorophenylpiperazine]",appetite and body weight of obese subjects,"[1]; obese male and female subjects, subchronic treatment for 14 days",decreased the appetite and body weight
same,food intake in female volunteers,"[1]; single dose, female volunteers",decreased food intake
same,food intake in rats,rats,reduce food intake
